{"source": "patent US9657351B2", "about": "“MRNA-based gene expression for personalizing patient cancer therapy with an MDM2 antagonist” (Hoffmann-La Roche Inc., priority 2013, dated 2017)", "assay_in_all_cases": "COMPOUND A In Vitro Assay", "type_in_all_cases": "cell-based", "key": {"AGS": {"test_system": "AGS", "conditions": "Homo sapiens", "procedure,_shortened": "(§1)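 Human cancer cell lines of varied tumour types are screened at high throughput with the MDM2 inhibitor COMPOUND A (RG7112); IC50 defines response. Lines reaching IC50>=10 count as resistant, whereas IC50<=1 counts as sensitive.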"}, "COLO 205": {"test_system": "COLO 205", "conditions": "Homo sapiens, Intestine, large, colon, TP53 Mutant", "procedure,_shortened": "as §1"}, "HT-1376": {"test_system": "HT-1376", "conditions": "Homo sapiens, Urinary, bladder, TP53 Mutant", "procedure,_shortened": "as §1"}, "KELLY": {"test_system": "KELLY", "conditions": "Homo sapiens, Brain, TP53 Mutant", "procedure,_shortened": "as §1"}, "Capan-2": {"test_system": "Capan-2", "conditions": "Homo sapiens, Pancreas, TP53 Mutant", "procedure,_shortened": "as §1"}, "COLO-824": {"test_system": "COLO-824", "conditions": "Homo sapiens, Breast, TP53 Wild type", "procedure,_shortened": "as §1"}, "HT-1080": {"test_system": "HT-1080", "conditions": "Homo sapiens", "procedure,_shortened": "as §1"}, "NB-4": {"test_system": "NB-4", "conditions": "Homo sapiens, Myeloblast, TP53 Mutant", "procedure,_shortened": "as §1"}, "PC-3": {"test_system": "PC-3", "conditions": "Homo sapiens, Prostate, TP53 Mutant", "procedure,_shortened": "as §1"}, "Calu-3": {"test_system": "Calu-3", "conditions": "Homo sapiens, Lung, TP53 Mutant", "procedure,_shortened": "as §1"}, "KMS-34": {"test_system": "KMS-34", "conditions": "Homo sapiens, Lymphocyte, TP53 Mutant", "procedure,_shortened": "as §1"}, "MDA-MB-157": {"test_system": "MDA-MB-157", "conditions": "Homo sapiens, Breast, mammary gland, TP53 Mutant", "procedure,_shortened": "as §1"}, "RL95-2": {"test_system": "RL95-2", "conditions": "Homo sapiens, Uterus, endometrium, TP53 Mutant", "procedure,_shortened": "as §1"}, "HCT116": {"test_system": "HCT116", "conditions": "Homo sapiens, HCT-116, Intestine, large, colon, TP53 Wild type", "procedure,_shortened": "as §1"}, "NCI-H345": {"test_system": "NCI-H345", "conditions": "Homo sapiens, Lung, TP53 Mutant", "procedure,_shortened": "as §1"}, "NCI-H1793": {"test_system": "NCI-H1793", "conditions": "Homo sapiens, Lung, TP53 Mutant", "procedure,_shortened": "as §1"}, "Caki-1": {"test_system": "Caki-1", "conditions": "Homo sapiens", "procedure,_shortened": "as §1"}, "NCI-H2081": {"test_system": "NCI-H2081", "conditions": "Homo sapiens, Lung, TP53 Wild type", "procedure,_shortened": "as §1"}, "AsPC-1": {"test_system": "AsPC-1", "conditions": "Homo sapiens, ASPC1, Pancreas, TP53 Mutant", "procedure,_shortened": "as §1"}, "K-562": {"test_system": "K-562", "conditions": "Homo sapiens, K562, Bone marrow, TP53 Mutant", "procedure,_shortened": "as §1"}, "NCI-H23": {"test_system": "NCI-H23", "conditions": "Homo sapiens, Lung, TP53 NA", "procedure,_shortened": "as §1"}, "A-375": {"test_system": "A-375", "conditions": "Homo sapiens", "procedure,_shortened": "as §1"}, "RPMI-2650": {"test_system": "RPMI-2650", "conditions": "Homo sapiens", "procedure,_shortened": "as §1"}, "HCC827": {"test_system": "HCC827", "conditions": "Homo sapiens, Lung, TP53 Mutant", "procedure,_shortened": "as §1"}, "NCI-H28": {"test_system": "NCI-H28", "conditions": "Homo sapiens", "procedure,_shortened": "as §1"}, "NCI-H292": {"test_system": "NCI-H292", "conditions": "Homo sapiens, Lung, TP53 Wild type", "procedure,_shortened": "as §1"}, "MKN-74": {"test_system": "MKN-74", "conditions": "Homo sapiens", "procedure,_shortened": "as §1"}, "LS411N": {"test_system": "LS411N", "conditions": "Homo sapiens, LS-411N, Intestine, large, caecum, TP53 Mutant", "procedure,_shortened": "as §1"}, "MFM-223": {"test_system": "MFM-223", "conditions": "Homo sapiens, Breast, mammary gland, TP53 Mutant", "procedure,_shortened": "as §1"}, "SCC-25": {"test_system": "SCC-25", "conditions": "Homo sapiens, Tongue, TP53 Mutant", "procedure,_shortened": "as §1"}, "DMS 114": {"test_system": "DMS 114", "conditions": "Homo sapiens, Lung, TP53 Mutant", "procedure,_shortened": "as §1"}, "NCI-H2023": {"test_system": "NCI-H2023", "conditions": "Homo sapiens, Lung, TP53 Mutant", "procedure,_shortened": "as §1"}, "HCC1395": {"test_system": "HCC1395", "conditions": "Homo sapiens, Breast, mammary gland, TP53 Mutant", "procedure,_shortened": "as §1"}, "KG-1a": {"test_system": "KG-1a", "conditions": "Homo sapiens, Bone marrow, TP53 Mutant", "procedure,_shortened": "as §1"}, "SU•86•86": {"test_system": "SU•86•86", "conditions": "Homo sapiens, SU.86.86, Pancreas, TP53 Mutant", "procedure,_shortened": "as §1"}}, "data": [{"smiles": "CCOc1cc(C(C)(C)C)ccc1C1=N[C@@](C)(c2ccc(Cl)cc2)[C@@](C)(c2ccc(Cl)cc2)N1C(=O)N1CCN(CCCS(C)(=O)=O)CC1", "note": "[COMPOUND A]", "values": [{"measurement": "IC50", "setting": "AGS; AGS cells", "value": 0.1, "unit": "µM"}, {"measurement": "IC50", "setting": "AGS; Stomach, TP53 Wild type", "value": 0.13, "unit": "µM"}, {"measurement": "IC50", "setting": "COLO 205", "value": 9.1, "unit": "µM"}, {"measurement": "IC50", "setting": "HT-1376", "value": 16, "unit": "µM"}, {"measurement": "IC50", "setting": "KELLY", "value": 15, "unit": "µM"}, {"measurement": "IC50", "setting": "Capan-2", "value": 9.1, "unit": "µM"}, {"measurement": "IC50", "setting": "COLO-824", "value": 15, "unit": "µM"}, {"measurement": "IC50", "setting": "HT-1080; HT-1080, HT-1080, Connective tissue, TP53 Wild type", "value": 0.058, "unit": "µM"}, {"measurement": "IC50", "setting": "HT-1080; HT-1080, HT-1080 cells", "value": 0.1, "unit": "µM"}, {"measurement": "IC50", "setting": "NB-4", "value": 4.7, "unit": "µM"}, {"measurement": "IC50", "setting": "PC-3", "value": 9, "unit": "µM"}, {"measurement": "IC50", "setting": "Calu-3", "value": 11, "unit": "µM"}, {"measurement": "IC50", "setting": "KMS-34", "value": 9.8, "unit": "µM"}, {"measurement": "IC50", "setting": "MDA-MB-157", "value": 20, "unit": "µM"}, {"measurement": "IC50", "setting": "RL95-2", "value": 9.3, "unit": "µM"}, {"measurement": "IC50", "setting": "HCT116", "value": 0.5, "unit": "µM"}, {"measurement": "IC50", "setting": "NCI-H345", "value": 17, "unit": "µM"}, {"measurement": "IC50", "setting": "NCI-H1793", "value": 10, "unit": "µM"}, {"measurement": "IC50", "setting": "Caki-1; CAKI-1, Caki-1, Kidney, TP53 Wild type", "value": 0.37, "unit": "µM"}, {"measurement": "IC50", "setting": "Caki-1; CAKI-1, Caki-1 cells", "value": 0.4, "unit": "µM"}, {"measurement": "IC50", "setting": "NCI-H2081", "value": 17, "unit": "µM"}, {"measurement": "IC50", "setting": "AsPC-1", "value": 19, "unit": "µM"}, {"measurement": "IC50", "setting": "K-562", "value": 16, "unit": "µM"}, {"measurement": "IC50", "setting": "NCI-H23", "value": 10, "unit": "µM"}, {"measurement": "IC50", "setting": "A-375; A-375, A-375, Skin, TP53 Wild type", "value": 0.32, "unit": "µM"}, {"measurement": "IC50", "setting": "A-375; A-375, A-375 cells", "value": 0.3, "unit": "µM"}, {"measurement": "IC50", "setting": "RPMI-2650; RPMI-2650, RPMI-2650, Nasal septum, TP53 Wild type", "value": 0.77, "unit": "µM"}, {"measurement": "IC50", "setting": "RPMI-2650; RPMI-2650, RPMI-2650 cells", "value": 0.8, "unit": "µM"}, {"measurement": "IC50", "setting": "HCC827", "value": 8.9, "unit": "µM"}, {"measurement": "IC50", "setting": "NCI-H28; NCI-H28, NCI-H28, Mesothelioma, TP53 Wild type", "value": 0.46, "unit": "µM"}, {"measurement": "IC50", "setting": "NCI-H28; NCI-H28, NCI-H28 cells", "value": 0.5, "unit": "µM"}, {"measurement": "IC50", "setting": "NCI-H292", "value": 1.6, "unit": "µM"}, {"measurement": "IC50", "setting": "MKN-74; MKN-74, MKN-74, Muscle, smooth, stomach, TP53 Wild type", "value": 0.88, "unit": "µM"}, {"measurement": "IC50", "setting": "MKN-74; MKN-74, MKN-74 cells", "value": 0.9, "unit": "µM"}, {"measurement": "IC50", "setting": "LS411N", "value": 16, "unit": "µM"}, {"measurement": "IC50", "setting": "MFM-223", "value": 17, "unit": "µM"}, {"measurement": "IC50", "setting": "SCC-25", "value": 9.4, "unit": "µM"}, {"measurement": "IC50", "setting": "DMS 114", "value": 10, "unit": "µM"}, {"measurement": "IC50", "setting": "NCI-H2023", "value": 5.8, "unit": "µM"}, {"measurement": "IC50", "setting": "HCC1395", "value": 20, "unit": "µM"}, {"measurement": "IC50", "setting": "KG-1a", "value": 9, "unit": "µM"}, {"measurement": "IC50", "setting": "SU•86•86", "value": 6.7, "unit": "µM"}]}]}
